Data from US20260000676A1, “CHROMAN DERIVATIVES AS ESTROGEN RECEPTOR DEGRADERS” (THE REGENTS OF THE UNIVERSITY OF MICHIGAN, priority 2022, published 2026).
Where a name gives a salt, the structure may show the parent alone.

Legend:
[1] = tested on: T47D cells; assay: cells; settings: Homo sapiens, 144 h, read-out: T47D Proliferation IC50 (nM)
Experimental: (§1) In vitro assay can be accomplished by MCF-7 and T47D Cell Titer Glo (CTG) assay. MCF-7 and T47D cell (From HDB) are cultured in multi-well white plate with phenol red-free RPMI1640+10% CS-FBS+1% P/S medium (e.g., at 1,000 cells/well). On day 0: Cells are treated with compound at certain concentrations (e.g., 0.5 to 10000 nM) (DMSO and Staurosporine as control). On day 0 and day 6: add Cell Titer Glo reagent and read on EnVision after 30 min incubation for data generation.
(§2) • 1) Cell culture medium: phenol red-free RPMI1640+10% CS-FBS, 1% P/S
(§3) Day-1: MCF-7 and T47D cell (From HDB) were cultured in 384-well white plate with phenol red-free RPMI1640+10% CS-FBS+1% P/S medium (1,000 cells/well) for overnight at 37° C., 5% CO2 incubator.
(§4) Day 0: Cells were treated at desired compound concentrations (0.5 to 10000 nM) (DMSO and Staurosporine as control) for Day 6 at 37° C., 5% CO2 incubator.
(§5) Day 0 and Day 6: add Cell TiterGlo reagent and read on EnVision after 30 min incubation for data generation.

[2] = target: T1, ER (Homo sapiens (Human), UniProt P03372); assay: In-cell western (ICW) ER degradation assay in T47D cells; assay type: cell-based; settings: 16 hrs; for DC50: ER degradation
[3] = tested on: MCF-7 cells; assay: cells; settings: Homo sapiens, MCF7, 144 h, read-out: MCF7 Proliferation IC50 (nM)
Experimental: as §1, §2, §3, §4, §5

[4] = target: T1, ER; assay: In-cell western (ICW) ER degradation assay in MCF-7 cells; assay type: cell-based; settings: MCF7, 16 hrs; for DC50: ER degradation; for MCF7 Dmax %: maximal ER degradation; for Dmax: MCF7, maximal ER degradation
[5] = target: CRBN/DDB1 (Homo sapiens (Human), UniProt Q96SW2); assay: HTRF binding assay to CRBN/DDB1; settings: read-out: CRBN HTRF IC50
Experimental: The binding potency was determined using HTRF assay technology (Perkin Elmer). Compounds were serially diluted in DMSO and 0.2 μL volume was transferred to white 384-well plate.

[6] = target: ERα_LBD(GST) (Homo sapiens (Human), UniProt P03372); assay: LanthaScreen TR-FRET ERα competitive binding assay; settings: read-out: ERα HTRF IC50
Experimental: • 1. ERα_LBD(GST) protein: 4 nM • 2. Tb Anti-GST: 2 nM • 3. Fluormone ES2 Green tracer: 3 nM • 4. Incubation time: 60 min • 5. DMSO: 1% • 6. Assay buffer: Adding 1M DTT to Nuclear receptor Buffer K for final 5 mM DTT. • 7. ZPE: 1% DMSO • 8. HPE: 1 μM ARV_471 • 9. LanthaScreen® TR-FRET ERα Competitive Binding Assay (ThermoFisher, #A15887)
• 1) Cherry pick 2 μL 10 mM compound stock to column 1 of a 384 intermediate plate • 2) Add 18 μL DMSO to column 1 to dilute compound to 1 mM. • 3) Transfer 10 μL 1 mM compound to column 1 of a LDV plate. • 2) Add 6 μl DMSO to column 2-10 of the LDV plate. • 3) Compounds undergo 3-fold serial dilution (3 μL+6 μL) in DMSO. • 4) Transfer 120 nL compound solution to assay plate. • ZPE: 120 nL 100% DMSO
Prepare complete nuclear receptor buffer K by adding 1 M DTT to nuclear receptor buffer K for a final concentration of 5 mM DTT. Complete nuclear receptor buffer K must be prepared fresh daily. Prepare 2× protein solution using complete nuclear receptor buffer K containing 8 nM ERα_LBD(GST) and 4 nM Tb Anti-GST. Then, prepare 2× Fluormone ES2 Green tracer (6 nM) using complete nuclear receptor buffer K. Add 6 μL 2× Fluormone ES2 green tracer into a compound plate (PerkinElmer 6008289) by dragonfly with one-tips-addition. Subsequently, add 6 μL 2× protein solution into the plate. Briefly and gently mix the 384-well plate on a plate shaker and incubate at room temperature protected from light for 60 min. The plate is sealed with a cover to minimize evaporation. Read the plate at wavelengths of 520 nm and 495 nm. Calculate the TR-FRET ratio by dividing the emission signal at 520 nm by the emission signal at 495 nm. Generate a binding curve by plotting the emission ratio vs. the log [ligand]. To determine the IC50 value, fit the data using XL-fit for a sigmoidal dose-response.

T1 sequence (P03372 whole entry): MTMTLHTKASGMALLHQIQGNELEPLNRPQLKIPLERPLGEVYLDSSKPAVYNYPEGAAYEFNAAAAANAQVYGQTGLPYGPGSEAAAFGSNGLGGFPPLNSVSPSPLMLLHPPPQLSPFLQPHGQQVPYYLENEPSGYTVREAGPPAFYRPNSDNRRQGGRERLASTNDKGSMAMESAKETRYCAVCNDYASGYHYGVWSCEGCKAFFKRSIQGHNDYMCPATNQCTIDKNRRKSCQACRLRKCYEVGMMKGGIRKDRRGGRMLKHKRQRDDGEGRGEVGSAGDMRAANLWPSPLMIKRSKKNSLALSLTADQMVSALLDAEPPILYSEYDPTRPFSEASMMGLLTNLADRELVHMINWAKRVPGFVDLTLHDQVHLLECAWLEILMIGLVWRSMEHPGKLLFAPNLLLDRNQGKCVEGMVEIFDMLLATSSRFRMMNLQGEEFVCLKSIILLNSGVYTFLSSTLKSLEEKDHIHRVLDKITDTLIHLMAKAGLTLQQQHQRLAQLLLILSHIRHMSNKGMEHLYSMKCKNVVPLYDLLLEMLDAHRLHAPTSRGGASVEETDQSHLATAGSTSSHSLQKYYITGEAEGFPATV
Chain of ERα_LBD(GST) (P03372 311-547): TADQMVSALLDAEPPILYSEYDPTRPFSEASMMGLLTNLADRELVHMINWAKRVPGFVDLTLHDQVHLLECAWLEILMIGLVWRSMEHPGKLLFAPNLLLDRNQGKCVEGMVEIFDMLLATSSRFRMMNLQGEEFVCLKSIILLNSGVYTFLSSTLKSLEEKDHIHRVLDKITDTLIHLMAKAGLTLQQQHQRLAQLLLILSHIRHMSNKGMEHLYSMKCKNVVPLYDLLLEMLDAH
Chain of CRBN/DDB1 (Q96SW2 whole entry): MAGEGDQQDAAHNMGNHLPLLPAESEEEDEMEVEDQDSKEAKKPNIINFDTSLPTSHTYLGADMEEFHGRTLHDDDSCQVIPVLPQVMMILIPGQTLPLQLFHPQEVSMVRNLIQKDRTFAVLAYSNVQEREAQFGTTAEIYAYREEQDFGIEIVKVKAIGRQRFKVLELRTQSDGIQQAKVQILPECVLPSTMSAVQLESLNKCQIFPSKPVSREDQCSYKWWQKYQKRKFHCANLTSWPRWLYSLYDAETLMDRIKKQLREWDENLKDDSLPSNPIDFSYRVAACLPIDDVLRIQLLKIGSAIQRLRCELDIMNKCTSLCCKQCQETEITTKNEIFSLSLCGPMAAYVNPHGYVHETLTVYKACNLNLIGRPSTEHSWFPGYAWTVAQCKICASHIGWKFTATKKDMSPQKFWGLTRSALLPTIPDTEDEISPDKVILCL
Chain of CRBN/DDB1 (Q16531 whole entry partner): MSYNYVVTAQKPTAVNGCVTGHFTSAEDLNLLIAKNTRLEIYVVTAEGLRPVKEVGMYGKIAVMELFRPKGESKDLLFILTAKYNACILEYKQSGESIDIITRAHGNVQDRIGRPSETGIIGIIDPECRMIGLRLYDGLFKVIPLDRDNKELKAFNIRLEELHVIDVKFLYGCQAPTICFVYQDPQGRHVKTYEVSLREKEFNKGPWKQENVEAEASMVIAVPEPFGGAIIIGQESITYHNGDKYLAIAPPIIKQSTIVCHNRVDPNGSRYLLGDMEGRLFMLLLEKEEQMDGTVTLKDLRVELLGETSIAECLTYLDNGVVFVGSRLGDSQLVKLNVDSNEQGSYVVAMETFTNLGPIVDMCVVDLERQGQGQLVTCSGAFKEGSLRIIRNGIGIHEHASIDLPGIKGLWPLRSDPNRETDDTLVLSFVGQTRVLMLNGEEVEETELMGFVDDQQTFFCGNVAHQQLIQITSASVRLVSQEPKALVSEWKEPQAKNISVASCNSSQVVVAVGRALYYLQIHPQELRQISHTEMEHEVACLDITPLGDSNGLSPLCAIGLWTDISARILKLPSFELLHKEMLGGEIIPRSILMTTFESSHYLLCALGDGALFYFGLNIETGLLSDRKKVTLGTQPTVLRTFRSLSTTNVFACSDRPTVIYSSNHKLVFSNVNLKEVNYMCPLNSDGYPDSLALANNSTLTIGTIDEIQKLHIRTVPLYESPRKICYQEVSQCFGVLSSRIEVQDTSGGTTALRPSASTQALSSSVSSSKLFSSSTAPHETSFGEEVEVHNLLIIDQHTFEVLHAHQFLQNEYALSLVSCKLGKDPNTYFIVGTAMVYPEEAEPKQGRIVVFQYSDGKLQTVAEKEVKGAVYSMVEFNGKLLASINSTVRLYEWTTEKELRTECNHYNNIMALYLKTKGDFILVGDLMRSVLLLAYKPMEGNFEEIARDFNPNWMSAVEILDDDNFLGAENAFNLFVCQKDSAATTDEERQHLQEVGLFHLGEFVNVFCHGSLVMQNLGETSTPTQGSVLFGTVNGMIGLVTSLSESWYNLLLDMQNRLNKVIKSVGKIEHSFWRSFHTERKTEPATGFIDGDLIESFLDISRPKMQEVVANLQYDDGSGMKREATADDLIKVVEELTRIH

SMILES: O=C1CCC(N2Cc3cc4c(cc3C2=O)CN(C(=O)CN2CC3(CCN(c5ccc([C@H]6c7ccc(O)cc7OC[C@H]6c6ccccc6)cc5)CC3)C2)C4)C(=O)N1 (stereo partly drawn) [Compound A56, 3-(6-(2-(7-(4-((3R,4S)-7-hydroxy-3-phenylchroman-4-yl)phenyl)-2,7-diazaspiro[3.5]nonan-2-yl)acetyl)-1-oxo-3,5,6,7-tetrahydropyrrolo[3,4-f]isoindol-2(1H)-yl)piperidine-2,6-dione formate]
- IC50 [1]: < 50 nM
- DC50 [2]: < 1 nM
- Dmax ([2]; maximal ER degradation): ≥ 75%
- IC50 [3]: < 50 nM
- DC50 ([4]; formate): 1 to 10 nM
- MCF7 Dmax % ([4]; formate): B (“B”: >50% and <75%)
- IC50 [5]: 50 to 500 nM

SMILES: O=C1CC[C@@H](N2Cc3cc4c(cc3C2=O)OC[C@@H]2CN(CC3CC5(CCN(c6ccc([C@H]7c8ccc(O)cc8OC[C@H]7c7ccccc7)cc6)CC5)C3)CCN42)C(=O)N1 [Compound A96, (R)-3-((S)-3-((7-(4-((3R,4S)-7-hydroxy-3-phenylchroman-4-yl)phenyl)-7-azaspiro[3.5]nonan-2-yl)methyl)-8-oxo-1,2,3,4,4a,5,8,10-octahydro-9H-pyrazino[1′,2′:4,5][1,4]oxazino[2,3-f]isoindol-9-yl)piperidine-2,6-dione]
- IC50 [1]: < 50 nM
- DC50 [2]: < 1 nM
- Dmax ([2]; maximal ER degradation): 50 to 75%
- IC50 [3]: < 50 nM
- DC50 [4]: < 1 nM
- Dmax [4]: 50 to 75%
- IC50 [5]: 50 to 500 nM

SMILES: O=C1CC[C@H](N2Cc3cc4c(cc3C2)N2CCN(C[C@@H]3COC5(CCN(c6ccc([C@H]7c8ccc(O)cc8OC[C@H]7c7ccccc7)cc6F)CC5)C3)C[C@H]2CO4)C(=O)N1 [Compound A161, (S)-3-((S)-3-(((R)-8-(2-fluoro-4-((3R,4S)-7-hydroxy-3-phenylchroman-4-yl)phenyl)-1-oxa-8-azaspiro[4.5]decan-3-yl)methyl)-1,2,3,4,4a, 5,8,10-octahydro-9H-pyrazino[1′,2′:4,5][1,4]oxazino[2,3-f]isoindol-9-yl)piperidine-2,6-dione]
- DC50 [2]: < 1 nM
- Dmax ([2]; maximal ER degradation): ≥ 75%
- IC50 [3]: < 50 nM
- DC50 [4]: < 1 nM
- Dmax [4]: 50 to 75%
- IC50 [5]: 50 to 500 nM

SMILES: O=C1CC[C@@H](N2Cc3cc4c(cc3C2=O)OC[C@H]2CN(CC3CCC5(CC3)CN(c3ccc([C@@H]6c7ccc(O)cc7OC[C@@H]6c6ccccc6)cc3)C5)CCN42)C(=O)N1 [Compound A119, (R)-3-((R)-3-((2-(4-((3S,4R)-7-hydroxy-3-phenylchroman-4-yl)phenyl)-2-azaspiro[3.5]nonan-7-yl)methyl)-8-oxo-1,2,3,4,4a,5,8,10-octahydro-9H-pyrazino[1′,2′:4,5][1,4]oxazino[2,3-f]isoindol-9-yl)piperidine-2,6-dione]
- IC50 [1]: 500 to 5000 nM
- DC50 [2]: 1 to 10 nM
- Dmax ([2]; maximal ER degradation): 50 to 75%
- IC50 [3]: 50 to 500 nM
- DC50 [4]: 1 to 10 nM
- Dmax [4]: 50 to 75%
- IC50 [5]: 500 to 5000 nM

SMILES: O=C1CCC(N2Cc3c(ccc4c3OCC43CCN(CC4CC5(CCN(c6ccc([C@@H]7c8ccc(O)cc8OC[C@@H]7c7ccccc7)cc6)CC5)C4)CC3)C2=O)C(=O)N1 (stereo partly drawn) [Compound A113, 3-(1′-((7-(4-((3S,4R)-7-hydroxy-3-phenylchroman-4-yl)phenyl)-7-azaspiro[3.5]nonan-2-yl)methyl)-6-oxo-6,8-dihydro-2H,7H-spiro[furo[2,3-e]isoindole-3,4′-piperidin]-7-yl)piperidine-2,6-dione]
- IC50 [1]: > 5000 nM
- DC50 [2]: < 1 nM
- Dmax ([2]; maximal ER degradation): 50 to 75%
- IC50 [3]: < 50 nM
- DC50 [4]: < 1 nM
- Dmax [4]: 50 to 75%
- IC50 [5]: < 50 nM

SMILES: COc1cc(N2CCC(CN3CCN(c4ccc(C(=O)NC5CCC(=O)NC5=O)nc4)CC3)CC2)c(F)cc1[C@H]1c2ccc(O)cc2OC[C@H]1c1ccccc1 (stereo partly drawn) [Compound A110, N-(2,6-dioxopiperidin-3-yl)-5-(4-((1-(2-fluoro-4-((3R,4R)-7-hydroxy-3-phenylchroman-4-yl)-5-methoxyphenyl)piperidin-4-yl)methyl)piperazin-1-yl)picolinamide]
- IC50 [6]: < 5 nM
- DC50 [2]: < 1 nM
- T47D Dmax % ([2]; maximal ER degradation): B (“B”: >50% and <75%)
- DC50 [4]: < 1 nM
- MCF7 Dmax % [4]: B (“B”: >50% and <75%)
- IC50 [5]: > 5000 nM

SMILES: O=C1CCC(Nc2ccc(N3CCN(CC4CC5(CCN(c6ccc([C@H]7c8ccc(O)cc8OC[C@H]7c7ccccc7)cc6)CC5)C4)CC3)c(F)c2)C(=O)N1 (single isomer, unassigned) [Compound A51]
- IC50 [1]: 50 to 500 nM
- DC50 [2]: < 1 nM
- Dmax ([2]; maximal ER degradation): 25 to 50%
- IC50 [3]: 50 to 500 nM
- DC50 [4]: < 1 nM
- Dmax [4]: 25 to 50%
- IC50 [5]: 500 to 5000 nM

SMILES: O=C1CCC(N2Cc3c(ccc4c3OCC43CCN(CC4CCC5(CC4)CN(c4ccc([C@@H]6c7ccc(O)cc7OC[C@@H]6c6ccccc6)cc4)C5)CC3)C2=O)C(=O)N1 (stereo partly drawn) [Compound A114, 3-(1′-((2-(4-((3S,4R)-7-hydroxy-3-phenylchroman-4-yl)phenyl)-2-azaspiro[3.5]nonan-7-yl)methyl)-6-oxo-6,8-dihydro-2H,7H-spiro[furo[2,3-e]isoindole-3,4′-piperidin]-7-yl)piperidine-2,6-dione]
- IC50 [1]: < 50 nM
- DC50 [2]: < 1 nM
- Dmax ([2]; maximal ER degradation): ≥ 75%
- IC50 [3]: < 50 nM
- DC50 [4]: < 1 nM
- Dmax [4]: ≥ 75%
- IC50 [5]: < 50 nM

SMILES: O=C1CCC(N2Cc3c(ccc4c3OCC43CCN(CC4COC5(CCN(c6ccc([C@H]7c8ccc(O)cc8OC[C@H]7c7ccccc7)cc6)CC5)C4)CC3)C2=O)C(=O)N1 (stereo partly drawn) [Compound A146, 3-(1′-((8-(4-((3R,4S)-7-hydroxy-3-phenylchroman-4-yl)phenyl)-1-oxa-8-azaspiro[4.5]decan-3-yl)methyl)-6-oxo-6,8-dihydro-2H,7H-spiro[furo[2,3-e]isoindole-3,4′-piperidin]-7-yl)piperidine-2,6-dione]
- IC50 [6]: ≥ 5 nM
- DC50 [2]: 1 to 10 nM
- Dmax ([2]; maximal ER degradation): 25 to 50%
- DC50 [4]: 1 to 10 nM
- Dmax [4]: 50 to 75%
- IC50 [5]: < 50 nM

SMILES: COc1cc(C(=O)NC2CCC(=O)NC2=O)ncc1N1CCN(CC2CC3(CCN(c4ccc([C@H]5c6ccc(O)cc6OC[C@H]5c5ccccc5)cc4)CC3)C2)CC1 (single isomer, unassigned) [Compound A116]
- IC50 [1]: 50 to 500 nM
- DC50 [2]: < 1 nM
- Dmax ([2]; maximal ER degradation): 50 to 75%
- IC50 [3]: < 50 nM
- DC50 [4]: < 1 nM
- Dmax [4]: 50 to 75%
- IC50 [5]: 500 to 5000 nM

SMILES: COc1cc(N2CCC(CN3CCN4c5ccc6c(c5OC[C@H]4C3)CN(C3CCC(=O)NC3=O)C6=O)CC2)ccc1[C@@H]1c2ccc(O)cc2OC[C@@H]1c1ccccc1 (single isomer, unassigned) [Compound A77]
- IC50 [6]: < 5 nM
- DC50 [2]: < 1 nM
- Dmax ([2]; maximal ER degradation): 50 to 75%
- DC50 [4]: < 1 nM
- Dmax [4]: 50 to 75%
- IC50 [5]: 500 to 5000 nM

SMILES: O=C1CC[C@@H](Nc2ccc(C3CCN(CC4CCC5(CC4)CN(c4ccc([C@H]6c7ccc(O)cc7OC[C@H]6c6ccccc6)cc4)C5)CC3)cc2)C(=O)N1 (single isomer, unassigned) [Compound A140]
- IC50 [6]: < 5 nM
- DC50 [2]: < 1 nM
- Dmax ([2]; maximal ER degradation): 50 to 75%
- DC50 [4]: < 1 nM
- Dmax [4]: 50 to 75%
- IC50 [5]: 500 to 5000 nM

SMILES: O=C1CC[C@H](NC(=O)c2ccc3c(n2)OC[C@H]2CN(C[C@H]4COC5(CCN(c6ccc([C@@H]7c8ccc(O)cc8OC[C@@H]7c7ccccc7)cc6)CC5)C4)CCN32)C(=O)N1 [Compound A147, (R)-N-((S)-2,6-dioxopiperidin-3-yl)-3-(((S)-8-(4-((3S,4R)-7-hydroxy-3-phenylchroman-4-yl)phenyl)-1-oxa-8-azaspiro[4.5]decan-3-yl)methyl)-1,2,3,4,4a,5-hexahydropyrazino[1,2-d]pyrido[2,3-b][1,4]oxazine-8-carboxamide]
- IC50 [6]: < 5 nM
- DC50 [2]: < 1 nM
- Dmax ([2]; maximal ER degradation): 50 to 75%
- DC50 [4]: < 1 nM
- Dmax [4]: 50 to 75%
- IC50 [5]: 500 to 5000 nM

SMILES: O=C1CC[C@@H](N2Cc3cc4c(cc3C2=O)CN(C(=O)CN2CCC3(CC2)CCN(c2ccc([C@H]5c6ccc(O)cc6OC[C@H]5c5ccccc5)cc2)CC3)C4)C(=O)N1 (single isomer, unassigned) [Compound A41]
- IC50 [6]: ≥ 5 nM
- DC50 [2]: < 1 nM
- Dmax ([2]; maximal ER degradation): ≥ 75%
- DC50 [4]: 1 to 10 nM
- Dmax [4]: 50 to 75%
- IC50 [5]: 50 to 500 nM
